Where two headings read alike, the source gives them in different places.
Key:
human D2L receptor = biological target: T1, human D2L receptor (Homo sapiens, UniProt P14416); experiment: Radioligand competition binding and kinetics, CHO-K1 membranes
T1 construct: purchased Euroscreen; host or cells: CHO-K1
Protocol: For kinetics of radioligand competitive binding, serial dilutions were performed from master solution in 100% DMSO to obtain intermediate concentrations 200-fold higher than the concentrations to be tested. Each test sample was diluted 100-fold in the assay buffer and dispensed into the test plate.
D2L Radioligand Binding Assay
Assay buffer: 25 mM HEPES (pH 7.4), 5 mM MgCl2, 1 mM CaCl2, BSA protease free 0.5% Washing buffer: 25 mM HEPES (pH 7.4), 5 mM MgCl2, 1 mM CaCl2 Membrane: recombinant CHO-K1-D2L membranes thawed on ice and diluted in assay buffer (2 μg/well)
Ligand: Risperidone (Tocris Bioscience, 2865)
Radioligand: [^3H]-Spiperone (TRK818, diluted in assay buffer for a final concentration of 3 nM) Filter plate: GF/B Unifilter plate (Perkin Elmer, 6005177) presoaked in 0.5% PEI for 2 hours at RT.
Determination of the Kon constant. Radioligand association kinetics on each receptor were performed by adding in the wells of a 96 well plate 50 μL of radioligand and 50 μL of membrane extracts. The samples were incubated for the times reported in Table 3 below at a temperature optimized for each receptor and filtered over a filter plate. After washing the filters 5 times with 0.5 mL of ice-cold washing buffer, 50 μL of Microscint 20 (Packard) were added to the filters and the plates were incubated 15 min on an orbital shaker and then counted for 1 min/well. This allowed determination of the kobs for each radioligand. Association kinetics were performed at 5 different radioligand concentrations optimized for each receptor (see Table 3 below) to determine 5 different kobs. The different kobs were then plotted against the [radioligand] and the K. was calculated using the following equation: kon=(kobs−koff)[radioligand].
Determination of the Koff constant. Radioligand dissociation kinetics on each receptor were performed by adding in the wells of a 96 well plate 45 μL of radioligand and 45 μL of membrane extracts. The samples were incubated as reported in Table 4 below at a temperature optimized for each receptor until binding equilibrium was reached as determined by the association kinetics experiment. Then, 100 μL of cold competitor (reference ligand) were added at a 200 fold excess (final concentration) for the times reported in Table 4 at the optimized temperature. The samples were then filtered over a filter plate. After washing the filters 5 times with 0.5 mL of ice-cold washing buffer, 50 μL of Microscint 20 (Packard) were added to the filters and the plates were incubated 15 min on an orbital shaker and then counted for 1 min/well. This allowed determination of the koff for each radioligand.
Determination of IC50 and Ki constant for each test compound. Radioligand competition binding on each receptor were performed by adding in the wells of a 96 well plate […] of test compound at increasing concentration as reported in Table 5 below, 25 μL of radioligand and 25 μL of membrane extracts. The samples were incubated for 60 min (or 4 hours for a second experiment on 5-HT2B receptors) at a temperature optimized for each receptor and then filtered over a filter plate. After washing the filters 5 times with 0.5 mL of ice-cold washing buffer, 50 μL of Microscint 20 (Packard) were added to the filters and the plates were incubated 15 min on an orbital shaker and then counted for 1 min/well. The test compounds were tested in duplicate at the nanomolar concentrations reported below in Table 5.
Determination of kon and koff constants for each test compound. Each compound was first assessed in a pilot experiment to evaluate its effect on the kinetic binding of each receptor-radioligand pair. These pilot experiments were performed at on compound concentration and were composed of 10 time-points measurements in duplicate (2, 5, 10, 20, 30, 45, 60, 90, 120 and 150 minutes). […]

[1] = biological target: T2, human Serotonin 5-HT4e receptor (Homo sapiens, UniProt Q13639); experiment: cAMP HTRF functional assay (agonist/antagonist); format: cell-based
T2 construct: expressed in transfected cells; host or cells: CHO-K1 (transient)
T2 sequence (Q13639 1-378 isoform Q13639-5): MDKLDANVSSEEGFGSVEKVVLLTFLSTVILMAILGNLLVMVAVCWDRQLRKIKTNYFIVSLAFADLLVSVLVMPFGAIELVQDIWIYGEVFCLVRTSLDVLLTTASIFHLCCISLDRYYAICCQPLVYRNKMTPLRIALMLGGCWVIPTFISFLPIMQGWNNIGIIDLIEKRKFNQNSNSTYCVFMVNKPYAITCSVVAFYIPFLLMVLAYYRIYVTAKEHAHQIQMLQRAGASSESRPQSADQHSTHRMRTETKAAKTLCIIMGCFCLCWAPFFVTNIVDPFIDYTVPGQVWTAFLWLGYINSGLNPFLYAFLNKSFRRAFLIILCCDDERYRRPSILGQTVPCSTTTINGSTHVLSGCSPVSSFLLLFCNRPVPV
Protocol: Functional profiling of agonist and antagonist activities of 8′-OH DHE on human Adrenergic α1D, Dopamine D2L, and Serotonin 5-HT1B, 5-HT1D, 5-HT1F, 5-HT3, 5-HT4e and 5-HT5A receptors (compared against the parent (DHE) molecule) was carried out as follows.
The SPA 35S-GTPγS tests were conducted with Euroscreen membrane preparations […]. The HTRF assays were conducted with recombinant cell lines. The receptor accession numbers, cellular background and reference compounds are as reported below in Table 10.
(4) DHE and 8′-OH DHE were tested for agonist and antagonist activity at the human Serotonin 5-HT1F and Serotonin 5-HT4E receptors using cAMP HTRF assay (in triplicate) at the following nanomolar concentrations: […]
Agonist activity of the test compounds was expressed as a percentage of the activity of the reference agonist at its EC100 concentration. Antagonist activity of the test compounds was expressed as a percentage of the inhibition of the reference agonist activity at its EC80 concentration. Dose-response data from the test compounds were analyzed with XLfit (IDBS) software using nonlinear regression applied to a sigmoidal dose-response model and the following equation: […]

T1 sequence (P14416 whole entry): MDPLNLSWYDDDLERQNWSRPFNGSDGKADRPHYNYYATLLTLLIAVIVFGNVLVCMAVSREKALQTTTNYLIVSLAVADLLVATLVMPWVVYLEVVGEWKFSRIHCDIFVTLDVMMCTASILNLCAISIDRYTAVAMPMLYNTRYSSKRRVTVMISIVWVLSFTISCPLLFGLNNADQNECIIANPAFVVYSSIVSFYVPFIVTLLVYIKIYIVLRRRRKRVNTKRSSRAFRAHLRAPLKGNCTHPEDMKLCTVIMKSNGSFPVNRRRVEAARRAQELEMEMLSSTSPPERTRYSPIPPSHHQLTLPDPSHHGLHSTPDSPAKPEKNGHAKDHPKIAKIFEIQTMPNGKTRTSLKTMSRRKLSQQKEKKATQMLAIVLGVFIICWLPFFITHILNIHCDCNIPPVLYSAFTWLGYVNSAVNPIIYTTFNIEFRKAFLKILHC

| SMILES | IC50 (human D2L receptor) [µM] | Avg Dissociation half-life (human D2L receptor; D2L) [min] | koff (human D2L receptor; D2L) [s⁻¹] | EC50 [1] [µM] | Avg Koff (human D2L receptor; D2L) [s⁻¹] | IC50 (human D2L receptor; D2L, [3H]-Spiperone, read-out: IC50 from binding assay) [µM] | EC50 ([1]; Serotonin 5-HT4e, cAMP HTRF, read-out: Functional activity (agonist)) [µM] |
| --- | --- | --- | --- | --- | --- | --- | --- |
| CN1C[C@H](C(=O)N[C@]2(C)O[C@@]3(O)[C@@H]4CCCN4C(=O)[C@H](Cc4ccccc4)N3C2=O)C[C@@H]2c3cccc4[nH]cc(c34)C[C@H]21 [DHE, Dihydroergotamine] | 0.231 | 14.4 | 0.000792 | 0.105 |  |  |  |
| CN1C[C@H](C(=O)N[C@]2(C)O[C@@]3(O)[C@@H]4CCC(O)N4C(=O)[C@H](Cc4ccccc4)N3C2=O)C[C@@H]2c3cccc4[nH]cc(c34)C[C@H]21 (some centres unmarked) [8′-OH DHE, 8′-Hydroxy-Dihydroergotamine] |  | 9 |  |  | 0.00127 | 0.297 | 0.109 |
